Reference: article PMC3446636 (2012)

Biological target: Cyclin-dependent kinase 2 (CDK2) (Homo sapiens, UniProt P24941)

Km: ~100 µM
Compound: Nc1ncnc2c1ncn2[C@@H]1O[C@H](COP(=O)(O)OP(=O)(O)OP(=O)(O)O)[C@@H](O)[C@H]1O [ATP]
